The results in this text go back to patent publication US20240376101A1, “SUBSTITUTED 1,4-DIHYDRO-1,6-NAPHTHYRIDINE AMIDE AND USE THEREOF” (Tuojie Biotech (Shanghai) Co., Ltd., priority 2021, published 2024).

A word on the IC50: it is the concentration needed to halve the response being measured. A higher IC50 goes with lower potency. One may read the half-life as the time needed for the level to fall by half in the phase considered. A word on the microsomal CLint: it is a measure of how fast metabolising enzymes remove a compound, apart from limits set by blood flow. A lower microsomal CLint goes with slow turnover.

Series [1] deals with T1, mineralocorticoid receptors (Homo sapiens, UniProt P08235).
T1 construct: expressed in transfected cells; host or cells: HEK293T
T1 sequence (P08235 726-964 limits assumed): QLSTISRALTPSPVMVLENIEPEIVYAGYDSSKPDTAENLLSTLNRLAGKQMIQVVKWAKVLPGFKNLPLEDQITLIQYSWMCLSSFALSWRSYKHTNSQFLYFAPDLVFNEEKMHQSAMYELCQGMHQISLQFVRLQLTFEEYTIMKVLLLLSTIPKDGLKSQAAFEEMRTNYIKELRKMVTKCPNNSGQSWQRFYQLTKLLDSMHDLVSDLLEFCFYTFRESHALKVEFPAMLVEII
As to the kind of experiment: Assay for in-vitro antagonistic activity against mineralocorticoid receptors (Gal4-MR LBD luciferase reporter in HEK293T cells, 1 nM aldosterone). In kind it is cell-based. From the text:
In in-vitro activity assays of compounds in the disclosure, the characteristic of luciferase binding to the substrate to cause a chemiluminescence reaction can be utilized to transfect human embryonic kidney cells (HEK293T) with a plasmid comprising the mineralocorticoid receptor ligand binding domain (LBD) and fused with the Gal4 DNA-binding domain (DBD) and a firefly luciferase reporter gene plasmid under the control of Gal4 UAS (upstream activation sequence). The influence of the presence of stimulation or different stimuli on mineralocorticoid receptor activity is judged by the level of firefly luciferase activity.
Test Example 1: Assay for In-Vitro Antagonistic Activity Against Mineralocorticoid Receptors
All the compounds to be tested were serially diluted 3-fold from 10 mM with DMSO (Sigma, D8418), and 10 concentrations were obtained for each of the compounds.
The reference compound eplerenone was serially diluted 3-fold with DMSO to form 10 concentrations.
A 1000× positive control (10 mM eplerenone) and a 1000× negative control (100% DMSO) were prepared.
• 2.1. All cells were cultured as recommended by ATCC. HEK293T cells were passaged and plated when in the exponential growth phase. • 2.2. The old culture medium in the cell culture flask was discarded, and the cells were washed with PBS. • 2.3. A proper amount of TrypLE solution was added to the culture flask to digest the cells to separate them, and the digestion was stopped with a serum-containing complete culture medium. • 2.4. The cell suspension was centrifuged to make the cells settle. The cells were washed with PBS 2 times to remove phenol red and were then suspended with culture medium to a proper concentration (only cells with a survival rate of greater than 90% were used in the subsequent experiments). • 2.5. 6×10^6 HEK293T cells were spread on a 100 mm Petri dish and incubated in a 37° C., 5% CO2 incubator for 16 h. • 2.6. The cells were transfected with plasmids and then incubated in a 37° C., 5% CO2 incubator for another 5-6 h. • 2.7. 25 nL of compound dilution was transferred to a 384-well assay plate using Echo655. • 2.8. HEK293T cells were plated at a concentration of 17,000 cells/well in a 384-well plate, and meanwhile 1 nM aldosterone was added to each well. • 2.9. The cells were incubated in a 37° C., 5% CO2 incubator for 18-20 h. • 2.10. 25 μL of britelite+luciferase assay reagent was added to each well of the 384-well assay plate, and luminescence values were recorded on an Envision 2105 plate reader. • 2.11. The IC50 values of the compounds were obtained using the software Graphad 8.0 and a non-linear fitting equation.
On the technique in general: In a reporter assay the amount or activity of a reporter protein is the signal.

Series [2] relates to db/db mice (idiopathic type II diabetes model mice). As to the kind of experiment: Efficacy test with db/db mouse model of diabetic nephropathy. In kind it is in vivo. Particulars: for mALB compared to the model control group / urine albumin-to-creatinine ratio (UACR) compared to the model control group / urine amount compared to the model control group: after 4 weeks of administration, in words; for UACR / Urine creatinine / Urine weight / mALB: Mean±SEM. The procedure:
Test Example 3: Efficacy Test with db/db Mouse Model of Diabetic Nephropathy
Proper amounts of compound 2-2 and finerenone were taken and separately mixed with a 0.5% hydroxyethyl cellulose solution (Tylose MH300) to form suspensions.
30 db/db mice (idiopathic type II diabetes model mice) were selected and divided into a model control group, a positive control group, and an administration group, and 10 db/m mice were selected as a control group.
The mice were dosed by oral gavage (i.g) once daily over 4 consecutive weeks. The dosing regimen is shown in detail in Table 4.
Urine albumin was used as a main measure. The data obtained were analyzed statistically using EXCEL and IBM SPSS Statistics 22.0.
All metrology data are expressed as Mean±SEM s. The parameters before and after dosing were plotted for the different groups of animals using the software Graph Pad Prism 8. Data were analyzed using the statistical software SPSS 22.0. A Levene's test of homogeneity of variance was performed on the parameters. When the variance was homogenous (P≥0.05), the Dunnett's & LSD method from the one-way analysis of variance (ANOVA) was used to compare the differences between the groups. When the variance was not homogenous (P<0.05), the Mann-Whitney U test (the M-W method) from the Kruskal-Wallis H test (the K-W method) was used to compare the differences between the groups. For animal survival, the log-rank test from the product-limit method (the K-M method) was used to compare the differences between the groups.

Series [3] is described as follows: Human liver microsome metabolism study. In kind it is in vitro ADME. The settings on record: human liver microsomes. How it is done:
Test Example 2: Human Liver Microsome Metabolism Study
222.5 μL of human liver microsomes (protein concentration: 1 mg/mL) and 25 μL of NADPH ([…]) were added to an incubation plate and pre-heated for 10 min. 2.5 μL of control compound and test compound (100 μM) were added.
30-μL aliquots were taken from the reaction solution at 0.5, 5, 10, 15, 20, and 30 min. The reaction was stopped by adding 5 volumes of cold acetonitrile containing IS (100 nM alprazolam, 200 nM caffeine, and 100 nM tolbutamide). The reaction solution was centrifuged, and 100 μL of the supernatant was collected and mixed with 100 μL of ultrapure H2O before analysis by LC-MS/MS.
The slope value k was determined by linear regression of the natural logarithm of a curve of the parent drug remaining percentage versus incubation time.
The in-vitro half-life (in-vitro T1/2) was determined by the slope value:
Using the following equation (the average of repeated measurements), the in-vitro T½ (min) was converted to in-vitro intrinsic clearance (in-vitro CLint, in μL/min/mg protein): […]
Background: Microsomes from liver hold many membrane-bound enzymes, among them those of drug oxidation.

Setting [4] is: 15 mg/kg i.g. once daily, 4 weeks.

Turning to `CCOc1ncc(C)c2c1C(c1cc(C)c(C#N)cc1OC)C(C(N)=O)=C(C)N2` (centres unmarked) [Compound 6], the IC50 in series [1] was determined as 10 nM.

`[2H]C([2H])([2H])C([2H])([2H])Oc1ncc(C)c2c1C(c1ccc(C#N)cc1OC)C(C(N)=O)=C(C)N2` (centres unmarked) [Compound 3] had an IC50 in series [1] of 17 nM.

For the molecule `[2H]C([2H])([2H])Oc1cc(C#N)ccc1C1C(C(N)=O)=C(C)Nc2c(C)cnc(OCC)c21` (centres unmarked) [Compound 2], in series [2], the “mALB compared to the model control group” value was “tended to be lower than those in the model control group”, the “urine albumin-to-creatinine ratio (UACR) compared to the model control group” value is “statistically significantly smaller than that of the mice in the model control group (P<0.01)” and the “urine amount compared to the model control group” value is reported as “tended to be lower than those in the model control group”. Further, the half-maximal inhibitory concentration (IC50) in series [1] is 7 nM.

`COc1cc(C#N)ccc1C1C(C(N)=O)=C(C)Nc2c(C)cnc(OCCSC)c21` (centres unmarked) [Compound 1] had an IC50 in series [1] of 16 nM.

In series [1], `CCOc1nc(Cl)cc2c1C(c1ccc(C#N)cc1OC)C(C(N)=O)=C(C)N2` (centres unmarked) [Compound 5] yielded an IC50 of 5 nM.

With `CCOc1ncc(C)c2c1[C@H](c1ccc(C#N)cc1OC)C(C(N)=O)=C(C)N2` [Finerenone], the figures for the UACR in series [2] (0 weeks (before dosing)) and in series [2] (setting [4]) were 5538.19 µg/mg and 4294.14 µg/mg, respectively. Moreover, the Urine creatinine in series [2] (0 weeks (before dosing)) was determined as 0.37 μmol/24 h; in series [2] (setting [4]) it was 2.11 μmol/24 h. Also, the Urine weight in series [2] (0 weeks (before dosing)) was determined as 2.86 mL; in series [2] (setting [4]), 11.96 mL. Besides, the mALB in series [2] (0 weeks (before dosing)) is reported as 226.68 μg/24 h; in series [2] (setting [4]), 1,013.76 μg/24 h. Moreover, the “mALB compared to the model control group” value in series [2] is reported as “tended to be lower than those in the model control group”. In addition, the “urine albumin-to-creatinine ratio (UACR) compared to the model control group” value in series [2] is recorded as “decreased somewhat but is not significantly different from that of the mice in the model group”. In series [2], the “urine amount compared to the model control group” value is recorded as “tended to be lower than those in the model control group”. Moreover, the IC50 in series [1] was 13 nM. The Remaining amount % in series [3] (0.5 min) came to 100.00%; in series [3] (5 min), 67.31%; in series [3] (10 min) it was 42.44%; in series [3] (15 min) it was 24.78%; in series [3] (20 min), 16.62%; in series [3] (30 min), 7.44%. The same molecule had a half-life at 1 μM in series [3] (in-vitro half-life) of 7.4 min. The molecule further showed an intrinsic metabolic clearance (microsomal CLint) at 1 μM in series [3] (in-vitro intrinsic clearance) of 93.7 µL/min/mg.

As for `CCOc1ncc(Cl)c2c1C(c1ccc(C#N)cc1OC)C(C(N)=O)=C(C)N2` (centres unmarked) [Compound 4], the IC50 in series [1] is 11 nM.
